Measured values from PubChem BioAssay (NCI).
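The compound was tested at five concentrations on cells cultured in 96-well plates, with a 48-hour exposure period. The concentration for 50% growth inhibition is given as GI50. TGI: total growth inhibition.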

Assays:
Test in all cases: NCI-60 cell line screen, 48 h
DU-145 prostate = test system: DU-145 prostate
HT29 colon = test system: HT29 colon
SN12C renal = test system: SN12C renal
MCF7 breast = test system: MCF7 breast
ACHN renal = test system: ACHN renal
UACC-62 melanoma = test system: UACC-62 melanoma
NCI-H23 lung = test system: NCI-H23 lung
SK-MEL-5 melanoma = test system: SK-MEL-5 melanoma
SK-MEL-28 melanoma = test system: SK-MEL-28 melanoma
UO-31 renal = test system: UO-31 renal
786-0 renal = test system: 786-0 renal
EKVX NSCLC = test system: EKVX NSCLC
NCI-H522 lung = test system: NCI-H522 lung
SNB-75 CNS = test system: SNB-75 CNS
A498 renal = test system: A498 renal
RPMI-8226 leukemia = test system: RPMI-8226 leukemia
TK-10 renal = test system: TK-10 renal
HCT-116 colon = test system: HCT-116 colon
MALME-3M melanoma = test system: MALME-3M melanoma
HS 578T breast = test system: HS 578T breast
BT-549 breast = test system: BT-549 breast
SK-MEL-2 melanoma = test system: SK-MEL-2 melanoma
SF-268 CNS = test system: SF-268 CNS
M14 melanoma = test system: M14 melanoma
MDA-MB-231 breast = test system: MDA-MB-231 breast
NCI-H226 lung = test system: NCI-H226 lung
NCI-H460 lung = test system: NCI-H460 lung
A549 NSCLC = test system: A549 NSCLC
SNB-19 CNS = test system: SNB-19 CNS
HOP-92 NSCLC = test system: HOP-92 NSCLC
OVCAR-5 ovarian = test system: OVCAR-5 ovarian
SF-295 CNS = test system: SF-295 CNS
SF-539 CNS = test system: SF-539 CNS
LOX IMVI melanoma = test system: LOX IMVI melanoma
OVCAR-8 ovarian = test system: OVCAR-8 ovarian
SR leukemia = test system: SR leukemia
COLO 205 colon = test system: COLO 205 colon
NCI/ADR-RES ovarian = test system: NCI/ADR-RES ovarian
MDA-MB-435 = test system: MDA-MB-435
CCRF-CEM leukemia = test system: CCRF-CEM leukemia
IGROV1 ovarian = test system: IGROV1 ovarian
HL-60(TB) leukemia = test system: HL-60(TB) leukemia
PC-3 prostate = test system: PC-3 prostate
HCT-15 colon = test system: HCT-15 colon
KM12 colon = test system: KM12 colon
OVCAR-4 ovarian = test system: OVCAR-4 ovarian
HCC-2998 colon = test system: HCC-2998 colon
MOLT-4 leukemia = test system: MOLT-4 leukemia
SK-OV-3 ovarian = test system: SK-OV-3 ovarian
RXF 393 renal = test system: RXF 393 renal
HOP-62 NSCLC = test system: HOP-62 NSCLC
K-562 leukemia = test system: K-562 leukemia
CAKI-1 renal = test system: CAKI-1 renal
OVCAR-3 ovarian = test system: OVCAR-3 ovarian
U251 CNS = test system: U251 CNS
T-47D breast = test system: T-47D breast
SW-620 colon = test system: SW-620 colon
UACC-257 melanoma = test system: UACC-257 melanoma

COc1cc2nccc(Oc3ccc(NC(=O)NC4CC4)c(Cl)c3)c2cc1C(N)=O
GI50 (DU-145 prostate): 21.6 µM | TGI (DU-145 prostate): > 100 µM | GI50 (HT29 colon): > 100 µM | TGI (HT29 colon): > 100 µM | GI50 (SN12C renal): 7.44 µM | TGI (SN12C renal): > 100 µM | GI50 (MCF7 breast): 36.2 µM | TGI (MCF7 breast): > 100 µM | GI50 (ACHN renal): 9.17 µM | TGI (ACHN renal): > 100 µM | GI50 (UACC-62 melanoma): 19.1 µM | TGI (UACC-62 melanoma): > 89.2 µM | GI50 (NCI-H23 lung): 15.6 µM | TGI (NCI-H23 lung): > 74.6 µM | GI50 (SK-MEL-5 melanoma): 40 µM | TGI (SK-MEL-5 melanoma): > 100 µM | GI50 (SK-MEL-28 melanoma): 41.3 µM | TGI (SK-MEL-28 melanoma): > 100 µM | GI50 (UO-31 renal): 5.55 µM | TGI (UO-31 renal): > 100 µM | GI50 (786-0 renal): 13.4 µM | TGI (786-0 renal): 37.7 µM | GI50 (EKVX NSCLC): 26.1 µM | TGI (EKVX NSCLC): > 100 µM | GI50 (NCI-H522 lung): 5.74 µM | TGI (NCI-H522 lung): 28.2 µM | GI50 (SNB-75 CNS): 2.82 µM | TGI (SNB-75 CNS): 36.8 µM | GI50 (A498 renal): 4.63 µM | TGI (A498 renal): 51.1 µM | GI50 (RPMI-8226 leukemia): 22.4 µM | TGI (RPMI-8226 leukemia): > 100 µM | GI50 (TK-10 renal): 14.5 µM | TGI (TK-10 renal): > 78.5 µM | GI50 (HCT-116 colon): 25.4 µM | TGI (HCT-116 colon): > 100 µM | GI50 (MALME-3M melanoma): 40.7 µM | TGI (MALME-3M melanoma): > 100 µM | GI50 (HS 578T breast): 14.5 µM | TGI (HS 578T breast): > 86.9 µM | GI50 (BT-549 breast): 5.17 µM | TGI (BT-549 breast): 27.2 µM | GI50 (SK-MEL-2 melanoma): 19.1 µM | TGI (SK-MEL-2 melanoma): 48.6 µM | GI50 (SF-268 CNS): 10.3 µM | TGI (SF-268 CNS): 48 µM | GI50 (M14 melanoma): 51 µM | TGI (M14 melanoma): > 100 µM | GI50 (MDA-MB-231 breast): 11.5 µM | TGI (MDA-MB-231 breast): 43.8 µM | GI50 (NCI-H226 lung): 1.1 µM | TGI (NCI-H226 lung): > 43.4 µM | GI50 (NCI-H460 lung): 39.9 µM | TGI (NCI-H460 lung): > 100 µM | GI50 (A549 NSCLC): 29.9 µM | TGI (A549 NSCLC): > 100 µM | GI50 (SNB-19 CNS): 17.7 µM | TGI (SNB-19 CNS): 62.1 µM | GI50 (HOP-92 NSCLC): 7.06 µM | TGI (HOP-92 NSCLC): 38.3 µM | GI50 (OVCAR-5 ovarian): 47.4 µM | TGI (OVCAR-5 ovarian): > 100 µM | GI50 (SF-295 CNS): 23.4 µM | TGI (SF-295 CNS): > 85.7 µM | GI50 (SF-539 CNS): 0.536 µM | TGI (SF-539 CNS): 40 µM | GI50 (LOX IMVI melanoma): 70.2 µM | TGI (LOX IMVI melanoma): > 100 µM | GI50 (OVCAR-8 ovarian): 17.5 µM | TGI (OVCAR-8 ovarian): > 79.1 µM | GI50 (SR leukemia): 30.5 µM | TGI (SR leukemia): > 100 µM | GI50 (COLO 205 colon): > 72.8 µM | TGI (COLO 205 colon): > 100 µM | GI50 (NCI/ADR-RES ovarian): 35.2 µM | TGI (NCI/ADR-RES ovarian): > 100 µM | GI50 (MDA-MB-435): > 100 µM | TGI (MDA-MB-435): > 100 µM | GI50 (CCRF-CEM leukemia): 62.6 µM | TGI (CCRF-CEM leukemia): > 100 µM | GI50 (IGROV1 ovarian): 30.6 µM | TGI (IGROV1 ovarian): > 100 µM | GI50 (HL-60(TB) leukemia): > 100 µM | TGI (HL-60(TB) leukemia): > 100 µM | GI50 (PC-3 prostate): 42.5 µM | TGI (PC-3 prostate): > 100 µM | GI50 (HCT-15 colon): 32 µM | TGI (HCT-15 colon): > 100 µM | GI50 (KM12 colon): 5.5 µM | TGI (KM12 colon): > 100 µM | GI50 (OVCAR-4 ovarian): 12.2 µM | TGI (OVCAR-4 ovarian): > 100 µM | GI50 (HCC-2998 colon): > 100 µM | TGI (HCC-2998 colon): > 100 µM | GI50 (MOLT-4 leukemia): 16.7 µM | TGI (MOLT-4 leukemia): > 100 µM | GI50 (SK-OV-3 ovarian): 17.5 µM | TGI (SK-OV-3 ovarian): 94.6 µM | GI50 (RXF 393 renal): 12.4 µM | TGI (RXF 393 renal): 43.4 µM | GI50 (HOP-62 NSCLC): 21.4 µM | TGI (HOP-62 NSCLC): 61.5 µM | GI50 (K-562 leukemia): 3.63 µM | TGI (K-562 leukemia): > 100 µM | GI50 (CAKI-1 renal): 23.9 µM | TGI (CAKI-1 renal): > 64.2 µM | GI50 (OVCAR-3 ovarian): 23.1 µM | TGI (OVCAR-3 ovarian): > 100 µM | GI50 (U251 CNS): 11.5 µM | TGI (U251 CNS): 42.8 µM | GI50 (T-47D breast): 14.4 µM | TGI (T-47D breast): > 100 µM | GI50 (SW-620 colon): 97.5 µM | TGI (SW-620 colon): > 100 µM | GI50 (UACC-257 melanoma): 27 µM | TGI (UACC-257 melanoma): > 93.7 µM

COc1cc2c(cc1C[C@H]1[C@@H]3C[C@H]4c5c(c6ccccc6n5C)C[C@@H]([C@@H]3CO[C@]1(C)OC(C)=O)N4C)c1c(n2C)C2C[C@H]3C(C(C)=O)=COC[C@H]3[C@H](C1)N2C
TGI (DU-145 prostate): > 25 µM | TGI (HT29 colon): 4.86 µM | TGI (SN12C renal): > 25 µM | TGI (MCF7 breast): > 25 µM | TGI (ACHN renal): 10.1 µM | TGI (UACC-62 melanoma): 14.6 µM | TGI (NCI-H23 lung): > 25 µM | TGI (SK-MEL-5 melanoma): 6.79 µM | TGI (SK-MEL-28 melanoma): > 25 µM | TGI (UO-31 renal): > 25 µM | TGI (786-0 renal): 5.89 µM | TGI (EKVX NSCLC): 2.24 µM | TGI (A498 renal): > 25 µM | TGI (RPMI-8226 leukemia): 3.56 µM | TGI (TK-10 renal): 16.1 µM | TGI (HCT-116 colon): 5.39 µM | TGI (MALME-3M melanoma): 6.42 µM | TGI (HS 578T breast): 13.3 µM | TGI (BT-549 breast): 13.3 µM | TGI (SK-MEL-2 melanoma): 15.2 µM | TGI (SF-268 CNS): 24 µM | TGI (M14 melanoma): 6.24 µM | TGI (MDA-MB-231 breast): 11.2 µM | TGI (NCI-H226 lung): 21.7 µM | TGI (NCI-H460 lung): 8.21 µM | TGI (A549 NSCLC): > 25 µM | TGI (SNB-19 CNS): > 25 µM | TGI (HOP-92 NSCLC): > 25 µM | TGI (OVCAR-5 ovarian): 11.6 µM | TGI (SF-295 CNS): 10.4 µM | TGI (SF-539 CNS): 5.87 µM | TGI (LOX IMVI melanoma): > 25 µM | TGI (OVCAR-8 ovarian): 8.83 µM | TGI (SR leukemia): 7.62 µM | TGI (COLO 205 colon): 6.19 µM | TGI (NCI/ADR-RES ovarian): 8.32 µM | TGI (MDA-MB-435): > 25 µM | TGI (CCRF-CEM leukemia): 5.84 µM | TGI (IGROV1 ovarian): > 25 µM | TGI (PC-3 prostate): 2.7 µM | TGI (HCT-15 colon): 6.25 µM | TGI (KM12 colon): 5.27 µM | TGI (OVCAR-4 ovarian): > 25 µM | TGI (HCC-2998 colon): 0.246 µM | TGI (MOLT-4 leukemia): > 25 µM | TGI (SK-OV-3 ovarian): > 25 µM | TGI (RXF 393 renal): 6.04 µM | TGI (HOP-62 NSCLC): 6.29 µM | TGI (K-562 leukemia): > 25 µM | TGI (CAKI-1 renal): 9.06 µM | TGI (OVCAR-3 ovarian): 5.98 µM | TGI (U251 CNS): > 25 µM | TGI (T-47D breast): 17.2 µM | TGI (SW-620 colon): 11.3 µM | TGI (UACC-257 melanoma): 8.01 µM
